Test results taken from patent US4443436A, “C-20-Modified macrolide derivatives of the macrolide antibiotics tylosin, desmycosin, macrocin, and lactenocin” (Eli Lilly and Company, priority 1982, dated 1984).
In brackets after ≈: the same amount, converted by molar mass. Read-outs that look alike come from different tables or passages of the source.

Tests used:
[1] = system: Staphylococcus aureus S13E; test: MIC, standard agar-dilution assay, Staphylococcus aureus S13E; type: cell-based; conditions: Staphylococcus aureus S13E; agar dilution
Streptococcus bovis 80 = test: MIC, broth-dilution microtiter test, Streptococcus bovis 80; type: cell-based
Text: (§1) The MIC's in Table X were obtained using conventional broth-dilution microtiter tests.

[2] = system: Staphylococcus aureus V41; test: MIC, standard agar-dilution assay, Staphylococcus aureus V41; type: cell-based
[3] = system: Pasteurella multocida 60A; test: MIC, broth-dilution microtiter test, Pasteurella multocida 60A; type: cell-based; conditions: Pasteurella multocida 60A, avian isolate, broth-dilution microtiter
Text: as §1

[4] = system: Staphylococcus aureus X400; test: MIC, standard agar-dilution assay, Staphylococcus aureus X400; type: cell-based; conditions: Staphylococcus aureus X400, methicillin-resistant strain, agar dilution
[5] = system: Streptococcus pyogenes C203; test: MIC, standard agar-dilution assay, Streptococcus pyogenes C203; type: cell-based; conditions: Streptococcus pyogenes C203, agar dilution
[6] = system: Pasteurella hemolytica 22C; test: MIC, broth-dilution microtiter test, Pasteurella hemolytica 22C; type: cell-based; conditions: Pasteurella hemolytica 22C, broth-dilution microtiter
Text: as §1

Staphylococcus aureus = test: MIC, broth-dilution microtiter test, Staphylococcus aureus; type: cell-based
Text: as §1

[7] = system: Staphylococcus epidermidis EPI2; test: MIC, standard agar-dilution assay, Staphylococcus epidermidis EPI2; type: cell-based
[8] = system: Streptococcus pyogenes C203; test: In vivo protection of mice experimentally infected with S. pyogenes C203; conditions: mice, doses given 1 and 4 hours post-infection; for ED50: Streptococcus pyogenes
Experimental: The C-20 modified derivatives of this invention have shown in vivo antimicrobial activity against experimentally-induced infections in laboratory animals. When two doses of test compound were administered to mice experimentally infected with S. pyogenes C203, the activity observed was measured as an ED50 value [effective dose in mg/kg to protect 50% of the test animals: see Warren Wick, et al., J. Bacteriol. 81, 233-235 (1961)].

[9] = system: Haemophilus influenzae R252; test: MIC, standard agar-dilution assay, Haemophilus influenzae R252; type: cell-based; conditions: Haemophilus influenzae R252, ampicillin-resistant strain
Mycoplasma synoviae = test: MIC, broth-dilution microtiter test, Mycoplasma synoviae; type: cell-based
Text: as §1

Mycoplasma gallisepticum = test: MIC, broth-dilution microtiter test, Mycoplasma gallisepticum; type: cell-based
Text: as §1

Pasteurella multocida [10] = test: Subcutaneous treatment of Pasteurella multocida-infected chicks; type: in vivo, one-day-old chicks; conditions: 30 mg/kg × 2, 1 and 4 hours post-challenge
Experimental: (§2) Many of the C-20 modified derivatives of this invention have also shown in vivo antibacterial activity against infections induced by gram-negative bacteria. Tables XII and XIII summarize the results of tests in which illustrative compounds were evaluated against Pasteurella infection in one-day-old chicks. The compounds were administered parenterally or orally after challenge of the chicks with Pasteurella multocida (0.1 ml of a 10^-4 dilution of a twenty-hour tryptose broth culture of an avian P. multocida given subcutaneously). In these tests, unless indicated otherwise, all non-medicated infected chicks died within 24 hours of Pasteurella challenge. In the tests summarized in Table XII the compounds were administered by subcutaneous injection at a dosage of 30 mg/kg, 1 and 4 hours post-challenge of the chicks with P. multocida. In the test summarized in Table XIII the compounds were administered by gavage at 1 and 5 hours post-challenge of the chicks with P. multocida.

[11] = system: Streptococcus Group D X66; test: MIC, standard agar-dilution assay, Streptococcus Group D X66; type: cell-based; conditions: Streptococcus Group D X66, agar dilution
[12] = system: Staphylococcus epidermidis EPI1; test: MIC, standard agar-dilution assay, Staphylococcus epidermidis EPI1; type: cell-based; conditions: Staphylococcus epidermidis EPI1, agar dilution
[13] = system: Staphylococcus aureus X1.1; test: MIC, standard agar-dilution assay, Staphylococcus aureus X1.1; type: cell-based; conditions: Staphylococcus aureus X1.1, agar dilution
[14] = system: Streptococcus pneumoniae Park I; test: microbe, parasite or virus in culture; type: cell-based
[15] = system: Haemophilus influenzae Holt; test: MIC, standard agar-dilution assay, Haemophilus influenzae Holt; type: cell-based; conditions: Haemophilus influenzae Holt; ampicillin-sensitive strain; agar dilution
Streptococcus Group 9960 = test: MIC, standard agar-dilution assay, Streptococcus Group 9960; type: cell-based; conditions: Streptococcus Group 9960; agar dilution
Mycoplasma hyorhinis = test: MIC, broth-dilution microtiter test, Mycoplasma hyorhinis; type: cell-based
Text: as §1

[16] = system: Pasteurella multocida 17E; test: MIC, broth-dilution microtiter test, Pasteurella multocida 17E; type: cell-based; conditions: Pasteurella multocida 17E, bovine isolate, broth-dilution microtiter
Text: as §1

Mycoplasma hyopneumoniae = test: MIC, broth-dilution microtiter test, Mycoplasma hyopneumoniae; type: cell-based; conditions: Mycoplasma hyopneumoniae, broth-dilution microtiter
Text: as §1

Pasteurella multocida [17] = test: Oral (gavage) treatment of Pasteurella multocida-infected chicks; type: in vivo, one-day-old chicks
Experimental: as §2

[18] = Streptococcus bovis 80, broth-dilution microtiter
[19] = Staphylococcus aureus V41, penicillin-resistant strain, agar dilution
[20] = Staphylococcus epidermidis EPI2, agar dilution
[21] = Mycoplasma synoviae, broth-dilution microtiter
[22] = Mycoplasma gallisepticum, broth-dilution microtiter
[23] = Streptococcus pneumoniae Park I, agar dilution
[24] = Mycoplasma hyorhinis, broth-dilution microtiter

CCC1OC(=O)CC(O)C(C)C(OC2OC(C)C(O)C(N(C)C)C2O)C(CCS(=O)(=O)c2ccc(C)cc2)CC(C)C(=O)C=CC(C)=CC1COC1OC(C)C(O)C(OC)C1OC (stereo not shown) [Compound 46, 20-DH-DO-20-(p-Toluenesulfonyl)desmycosin]
MIC [1]: 0.25 µg/mL (≈ 0.274 µM)
MIC (Streptococcus bovis 80; [18]): 6.25 µg/mL (≈ 6.85 µM)
MIC [2, 19]: 0.25 µg/mL (≈ 0.274 µM)
MIC [3]: 12.5 µg/mL (≈ 13.7 µM)
MIC [4]: 0.25 µg/mL (≈ 0.274 µM)
MIC [5]: 1 µg/mL (≈ 1.1 µM)
MIC [6]: 12.5 µg/mL (≈ 13.7 µM)
MIC (Staphylococcus aureus; broth-dilution microtiter): 0.39 µg/mL (≈ 0.428 µM)
MIC [7, 20]: 0.12 µg/mL (≈ 0.132 µM)
ED50, Oral ([8]; oral): > 50 mg/kg × 2
ED50, Subcutaneous ([8]; subcutaneous): 4.2 mg/kg × 2
MIC ([9]; agar dilution): 8 µg/mL (≈ 8.77 µM)
MIC (Mycoplasma synoviae; [21]): 0.78 µg/mL (≈ 0.855 µM)
MIC (Mycoplasma gallisepticum; [22]): 0.19 µg/mL (≈ 0.208 µM)
Number of Deaths/Number Treated (Pasteurella multocida [10]): 0/10
MIC [11]: 8 µg/mL (≈ 8.77 µM)
MIC [12]: 0.25 µg/mL (≈ 0.274 µM)
MIC [13]: 0.25 µg/mL (≈ 0.274 µM)
MIC [14, 23]: 1 µg/mL (≈ 1.1 µM)
MIC [15]: 4 µg/mL (≈ 4.39 µM)
MIC (Streptococcus Group 9960): 8 µg/mL (≈ 8.77 µM)
MIC (Mycoplasma hyorhinis; [24]): 50 µg/mL (≈ 54.8 µM)
MIC [16]: 12.5 µg/mL (≈ 13.7 µM)
MIC (Mycoplasma hyopneumoniae): 12.5 µg/mL (≈ 13.7 µM)

CCC1OC(=O)CC(O)C(C)C(OC2OC(C)C(O)C(N(C)C)C2O)C(CCOc2cccnc2)CC(C)C(=O)C=CC(C)=CC1COC1OC(C)C(O)C(OC)C1OC (stereo not shown) [Compound 49, 20-DH-20-O-(Pyridin-3-yl)desmycosin]
MIC [1]: 0.5 µg/mL (≈ 0.588 µM)
MIC (Streptococcus bovis 80; [18]): 25 µg/mL (≈ 29.4 µM)
MIC [2, 19]: 0.5 µg/mL (≈ 0.588 µM)
MIC [3]: 25 µg/mL (≈ 29.4 µM)
MIC [4]: 0.5 µg/mL (≈ 0.588 µM)
MIC [5]: 2 µg/mL (≈ 2.35 µM)
MIC [6]: 25 µg/mL (≈ 29.4 µM)
MIC (Staphylococcus aureus; broth-dilution microtiter): 1.56 µg/mL (≈ 1.83 µM)
MIC [7, 20]: 0.25 µg/mL (≈ 0.294 µM)
MIC ([9]; agar dilution): 16 µg/mL (≈ 18.8 µM)
MIC (Mycoplasma synoviae; [21]): 3.12 µg/mL (≈ 3.67 µM)
MIC (Mycoplasma gallisepticum; [22]): 0.78 µg/mL (≈ 0.917 µM)
Number of Deaths/Number Treated (Pasteurella multocida [10]): 9/10
MIC [11]: 16 µg/mL (≈ 18.8 µM)
MIC [12]: 0.5 µg/mL (≈ 0.588 µM)
MIC [13]: 0.5 µg/mL (≈ 0.588 µM)
MIC [14, 23]: 2 µg/mL (≈ 2.35 µM)
MIC [15]: 16 µg/mL (≈ 18.8 µM)
MIC (Streptococcus Group 9960): 16 µg/mL (≈ 18.8 µM)
MIC (Mycoplasma hyorhinis; [24]): 50 µg/mL (≈ 58.8 µM)
MIC [16]: 25 µg/mL (≈ 29.4 µM)
MIC (Mycoplasma hyopneumoniae): 25 µg/mL (≈ 29.4 µM)

CCOC(=O)C1CSC(CC2CC(C)C(=O)C=CC(C)=CC(COC3OC(C)C(O)C(OC)C3OC)C(CC)OC(=O)CC(O)C(C)C2OC2OC(C)C(O)C(N(C)C)C2O)N1 (stereo not shown) [Compound 76]
Number of Deaths/Number tested (Pasteurella multocida [17]; 0.5 g/gal equivalent): 3/10
Number of Deaths/Number tested (Pasteurella multocida [17]; 1.0 g/gal equivalent, 13/20 infected nonmedicated chicks died in this test): 4/10
Number of Deaths/Number tested (Pasteurella multocida [17]; 2.0 g/gal equivalent, 11/20 infected nonmedicated chicks died in this test): 4/10
MIC (Streptococcus bovis 80; Streptococcus equinus, 80): 3.12 µg/mL (≈ 3.45 µM)
MIC ([2]; Staphylococcus aureus, V41): 0.5 µg/mL (≈ 0.554 µM)
MIC ([3]; read-out: MIC): 25 µg/mL (≈ 27.7 µM)
MIC ([4]; read-out: MIC): 2400 µg/mL (≈ 2660 µM)
MIC ([5]; read-out: MIC): 0.53 µg/mL (≈ 0.587 µM)
MIC ([6]; read-out: MIC): 25 µg/mL (≈ 27.7 µM)
MIC (Staphylococcus aureus): 0.78 µg/mL (≈ 0.864 µM)
MIC ([7]; Staphylococcus epidermidis, EPI2): 0.25 µg/mL (≈ 0.277 µM)
ED50 ([8]; C203, sc, subcutaneous, read-out: ED50, Subcutaneous): 4.8 mg/kg
ED50 ([8]; C203, oral, read-out: ED50, Oral): 17 mg/kg
MIC ([9]; read-out: MIC): 3250 µg/mL (≈ 3600 µM)
MIC (Mycoplasma synoviae; Mycoplasmopsis synoviae): 3.12 µg/mL (≈ 3.45 µM)
MIC (Mycoplasma gallisepticum; Mycoplasmoides gallisepticum): 1.56 µg/mL (≈ 1.73 µM)
Number of Deaths/Number Treated (Pasteurella multocida [10]): 3/10
MIC ([11]; read-out: MIC): 466 µg/mL (≈ 516 µM)
MIC ([12]; read-out: MIC): 0.51 µg/mL (≈ 0.565 µM)
MIC ([13]; read-out: MIC): 0.51 µg/mL (≈ 0.565 µM)
MIC ([14]; Streptococcus pneumoniae): 0.25 µg/mL (≈ 0.277 µM)
MIC (Mycoplasma hyorhinis; Mycoplasma): 50 µg/mL (≈ 55.4 µM)
MIC ([16]; read-out: MIC): 25 µg/mL (≈ 27.7 µM)
MIC (Mycoplasma hyopneumoniae; Mesomycoplasma hyopneumoniae, read-out: MIC): 0.19 µg/mL (≈ 0.21 µM)
